Values of other authors in US6762172B1, “Water-stabilized organosilane compounds and methods for using the same” (Nova Biogenetics, Inc., priority 1997, dated 2004).

Conditions: mixture with water, non-stabilized

For `CCCCCCCCCCCCCCCCCC[N+](C)(C)CCC[Si](OC)(OC)OC.[Cl-]` [3-(trimethoxysilyl)propyl-dimethyloctadecyl ammonium chloride], the “begins to lose effectiveness” value is given as “four to eight”.
